Source: patent US6426222B1, “Method for inducing osteoblast differentiation of human extramedullary adipose tissue cells” (Bio Holdings International Limited, priority 1997, dated 2002)
pIC50: −log10 of the molar value.

Assays:
[1] = test system: human extramedullary adipose tissue cells; assay: Alkaline phosphatase activity of treated cultures (para-nitrophenol phosphate substrate); assay type: cell-based; details: dexamethasone 10^-7 M
Method: Adipose tissue biopsies were taken during plastic surgery of the abdomen on healthy patients, of ages of from 25 to 50.
The tissues taken were sliced thinly into small fragments and digested for 90 minutes with collagenase (2 mg/ml) in a Krebs Ringer buffer at 37° C. Filtering was performed on a screen having a pore size of 100 μm, the filtrate was recovered, and centrifuged at 1000 revolutions per minute (rpm) for 5 min. The supernatant was removed and the pellet was washed several times in Krebs Ringer buffer. The washing and centrifuging steps were repeated several times and on each occasion the supernatant containing mature adipocytes was removed. The resulting cells were suspended in DME/F12 (Sigma Chemical Co., St. Louis, Mo. USA; reference D-6905) culture medium containing 10% fetal calf serum, 100 μg/ml streptomycin, and 100 U/ml penicillin.
Polystyrene culture dishes (“tissue culture flasks” sold by Becton-Dickinson under the references 3013, 3028, and 3084) were inoculated with the resulting cell suspension and incubation was performed at 37° C. under an atmosphere of moist air with 5% additional CO2. […]
The quantity of para-nitrophenol formed upon hydrolysis of the substrate was determined by measuring the absorbance at 410 nm, which was converted into nanomoles of enzyme using a calibration curve established on the basis of known concentrations of para-nitrophenol.

[2] = target: placenta type alkaline phosphatase (Homo sapiens, UniProt P05187); details: read-out: levamisole concentration for 50% inhibition of activity, placenta type alkaline phosphatase; cited from earlier work
[3] = target: intestine type alkaline phosphatase (Homo sapiens, UniProt P09923); details: read-out: levamisole concentration for 50% inhibition of activity, intestine type alkaline phosphatase; cited from earlier work
intestine type alkaline phosphatase, sequence (P09923 20-503 limits assumed): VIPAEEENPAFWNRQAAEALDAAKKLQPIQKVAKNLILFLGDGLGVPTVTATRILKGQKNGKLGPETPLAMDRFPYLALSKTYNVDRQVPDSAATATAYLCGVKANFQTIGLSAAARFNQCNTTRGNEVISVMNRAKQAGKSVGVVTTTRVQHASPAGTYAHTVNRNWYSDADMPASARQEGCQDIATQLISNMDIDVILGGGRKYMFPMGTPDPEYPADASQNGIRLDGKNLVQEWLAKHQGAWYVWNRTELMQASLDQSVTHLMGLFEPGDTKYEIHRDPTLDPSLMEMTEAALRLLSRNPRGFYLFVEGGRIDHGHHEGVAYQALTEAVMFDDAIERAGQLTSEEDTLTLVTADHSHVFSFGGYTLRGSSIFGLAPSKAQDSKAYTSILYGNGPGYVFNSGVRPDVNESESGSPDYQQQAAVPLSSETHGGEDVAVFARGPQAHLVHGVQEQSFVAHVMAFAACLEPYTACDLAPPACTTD

placenta type alkaline phosphatase, sequence (P05187 23-506 limits assumed): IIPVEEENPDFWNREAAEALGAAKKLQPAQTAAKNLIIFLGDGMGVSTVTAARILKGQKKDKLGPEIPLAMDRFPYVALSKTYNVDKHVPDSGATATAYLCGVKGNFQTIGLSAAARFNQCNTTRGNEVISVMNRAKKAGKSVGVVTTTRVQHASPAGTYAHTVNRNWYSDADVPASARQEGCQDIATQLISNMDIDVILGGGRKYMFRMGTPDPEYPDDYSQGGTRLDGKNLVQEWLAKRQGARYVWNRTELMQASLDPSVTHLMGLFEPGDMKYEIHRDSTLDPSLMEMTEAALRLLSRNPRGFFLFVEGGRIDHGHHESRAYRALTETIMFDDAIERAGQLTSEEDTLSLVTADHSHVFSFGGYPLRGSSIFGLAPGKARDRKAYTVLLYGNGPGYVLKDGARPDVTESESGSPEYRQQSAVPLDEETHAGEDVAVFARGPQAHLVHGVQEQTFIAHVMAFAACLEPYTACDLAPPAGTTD

C[C@@H]1C[C@H]2[C@@H]3CCC4=CC(=O)C=C[C@]4(C)[C@@]3(F)[C@@H](O)C[C@]2(C)[C@@]1(O)C(=O)CO [dexamethasone]
alkaline phosphatase activity, observed in nearly all cases [1]: not less than 200 nanomoles of para-nitrophenol/30 min/well
alkaline phosphatase activity, sometimes as high as [1]: ≤ 700 nanomoles/30 min/well

c1ccc([C@H]2CN3CCSC3=N2)cc1 [levamisole]
pIC50 [2]: ~3.00
pIC50 [3]: ~2.52
